From PMC4579064 (Toxicology and applied pharmacology, 2015)

What was measured:
[1] = target: T1, CYP2A6 (Homo sapiens, UniProt P11509); assay: recombinant CYP activity with fluorogenic substrate; type: biochemical
T1 sequence (P11509 1-494): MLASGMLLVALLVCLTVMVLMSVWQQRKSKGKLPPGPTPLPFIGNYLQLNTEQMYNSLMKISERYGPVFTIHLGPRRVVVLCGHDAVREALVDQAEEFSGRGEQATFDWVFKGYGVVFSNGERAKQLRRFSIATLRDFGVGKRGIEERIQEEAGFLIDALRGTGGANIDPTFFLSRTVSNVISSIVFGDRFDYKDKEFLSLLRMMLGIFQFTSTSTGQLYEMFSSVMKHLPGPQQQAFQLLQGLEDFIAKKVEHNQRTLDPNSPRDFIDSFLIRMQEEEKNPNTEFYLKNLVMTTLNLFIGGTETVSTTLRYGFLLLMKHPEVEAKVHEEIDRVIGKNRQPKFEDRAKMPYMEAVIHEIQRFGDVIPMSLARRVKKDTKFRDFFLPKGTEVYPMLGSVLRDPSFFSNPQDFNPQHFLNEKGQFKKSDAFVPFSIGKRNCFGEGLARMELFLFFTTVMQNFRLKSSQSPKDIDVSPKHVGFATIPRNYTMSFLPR

[2] = target: T2, CYP2B6 (Homo sapiens, UniProt P20813); assay: as above; type: biochemical
T2 sequence (P20813 1-491): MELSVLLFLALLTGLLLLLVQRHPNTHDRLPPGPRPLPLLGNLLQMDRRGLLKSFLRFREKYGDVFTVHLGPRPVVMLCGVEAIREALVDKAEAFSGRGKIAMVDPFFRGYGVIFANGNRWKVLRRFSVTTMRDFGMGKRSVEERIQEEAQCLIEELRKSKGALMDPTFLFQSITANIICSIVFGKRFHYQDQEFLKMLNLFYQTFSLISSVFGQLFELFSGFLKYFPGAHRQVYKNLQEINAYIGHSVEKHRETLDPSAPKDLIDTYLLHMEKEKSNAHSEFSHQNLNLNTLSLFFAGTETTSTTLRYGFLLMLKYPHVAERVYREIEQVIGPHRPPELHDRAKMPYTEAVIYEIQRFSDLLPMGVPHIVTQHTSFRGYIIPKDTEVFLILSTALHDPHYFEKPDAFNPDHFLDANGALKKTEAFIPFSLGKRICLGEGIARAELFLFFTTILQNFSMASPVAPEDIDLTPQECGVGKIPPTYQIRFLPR

[3] = target: T3, CYP2C8 (Homo sapiens, UniProt P10632); assay: as above; type: biochemical
T3 sequence (P10632 1-490): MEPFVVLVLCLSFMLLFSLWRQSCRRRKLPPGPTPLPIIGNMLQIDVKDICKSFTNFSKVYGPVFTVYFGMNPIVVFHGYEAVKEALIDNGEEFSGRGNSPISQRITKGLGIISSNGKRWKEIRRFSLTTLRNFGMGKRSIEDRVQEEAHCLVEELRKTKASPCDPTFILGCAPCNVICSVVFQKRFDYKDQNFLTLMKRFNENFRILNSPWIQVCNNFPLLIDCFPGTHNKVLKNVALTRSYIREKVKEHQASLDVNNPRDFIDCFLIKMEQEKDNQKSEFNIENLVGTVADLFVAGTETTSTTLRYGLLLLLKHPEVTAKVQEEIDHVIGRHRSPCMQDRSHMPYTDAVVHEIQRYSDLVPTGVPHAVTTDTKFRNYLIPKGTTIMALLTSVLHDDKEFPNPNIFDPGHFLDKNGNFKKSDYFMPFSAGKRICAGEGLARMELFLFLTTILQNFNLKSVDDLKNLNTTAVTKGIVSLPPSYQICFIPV

[4] = target: CYP3A5 (Homo sapiens, UniProt P20815); assay: as above; type: biochemical
Chain of CYP3A5 (P20815 whole entry): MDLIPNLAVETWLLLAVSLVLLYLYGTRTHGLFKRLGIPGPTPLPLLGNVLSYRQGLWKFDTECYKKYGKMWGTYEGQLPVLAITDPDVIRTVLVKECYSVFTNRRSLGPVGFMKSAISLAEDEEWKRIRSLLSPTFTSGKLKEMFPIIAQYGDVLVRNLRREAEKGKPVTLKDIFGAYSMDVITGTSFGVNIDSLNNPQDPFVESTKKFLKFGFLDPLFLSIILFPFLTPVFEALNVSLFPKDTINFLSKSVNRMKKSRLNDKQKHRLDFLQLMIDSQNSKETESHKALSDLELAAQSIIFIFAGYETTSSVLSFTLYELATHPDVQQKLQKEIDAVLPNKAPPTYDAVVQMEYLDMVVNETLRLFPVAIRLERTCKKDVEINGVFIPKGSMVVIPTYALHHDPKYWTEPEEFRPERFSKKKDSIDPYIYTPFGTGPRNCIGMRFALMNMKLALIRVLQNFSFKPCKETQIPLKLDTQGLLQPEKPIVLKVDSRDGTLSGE
Chain of CYP3A5 (P16435 2-677 partner): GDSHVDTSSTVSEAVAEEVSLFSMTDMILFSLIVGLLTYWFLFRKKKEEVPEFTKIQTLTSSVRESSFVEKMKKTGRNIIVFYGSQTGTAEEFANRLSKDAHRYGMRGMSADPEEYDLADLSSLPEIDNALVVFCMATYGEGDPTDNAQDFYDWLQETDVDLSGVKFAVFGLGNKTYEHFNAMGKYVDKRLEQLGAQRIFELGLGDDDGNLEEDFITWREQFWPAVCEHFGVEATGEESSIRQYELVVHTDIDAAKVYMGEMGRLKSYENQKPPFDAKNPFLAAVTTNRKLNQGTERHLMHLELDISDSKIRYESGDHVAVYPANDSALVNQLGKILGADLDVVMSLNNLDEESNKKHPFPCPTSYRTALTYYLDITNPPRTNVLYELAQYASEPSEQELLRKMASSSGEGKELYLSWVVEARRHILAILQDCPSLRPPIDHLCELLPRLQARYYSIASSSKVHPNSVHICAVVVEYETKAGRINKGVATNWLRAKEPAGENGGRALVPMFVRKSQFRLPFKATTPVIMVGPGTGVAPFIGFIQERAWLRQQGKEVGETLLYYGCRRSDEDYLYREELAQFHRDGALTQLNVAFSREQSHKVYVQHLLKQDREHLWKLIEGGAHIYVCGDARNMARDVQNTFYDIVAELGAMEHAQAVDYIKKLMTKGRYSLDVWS

[5] = target: T4, CYP1A2 (Homo sapiens, UniProt P05177); conditions: 50 µM menadione; parathion 200 µM
T4 sequence (P05177 2-516 limits assumed): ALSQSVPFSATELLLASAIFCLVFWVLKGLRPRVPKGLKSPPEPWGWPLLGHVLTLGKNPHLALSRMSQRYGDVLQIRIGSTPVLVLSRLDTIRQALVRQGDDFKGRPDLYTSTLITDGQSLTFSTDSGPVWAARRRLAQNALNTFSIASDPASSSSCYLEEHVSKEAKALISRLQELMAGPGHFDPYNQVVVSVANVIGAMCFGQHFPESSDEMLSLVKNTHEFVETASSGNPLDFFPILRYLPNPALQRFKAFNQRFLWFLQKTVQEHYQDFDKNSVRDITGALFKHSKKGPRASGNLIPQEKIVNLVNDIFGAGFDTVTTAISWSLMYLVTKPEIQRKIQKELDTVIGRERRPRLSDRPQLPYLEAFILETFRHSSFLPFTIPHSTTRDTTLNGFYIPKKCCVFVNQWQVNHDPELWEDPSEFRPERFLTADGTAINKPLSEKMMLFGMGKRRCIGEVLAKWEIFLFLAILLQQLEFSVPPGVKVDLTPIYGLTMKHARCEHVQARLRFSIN

[6] = test system: female Long-Evans rats; conditions: menadione 40 mg/kg ip 20 min after parathion 8 mg/kg oral
[7] = target: CYP2D6 (Homo sapiens, UniProt P10635); assay: recombinant CYP activity with fluorogenic substrate
Chain of CYP2D6 (P10635 whole entry): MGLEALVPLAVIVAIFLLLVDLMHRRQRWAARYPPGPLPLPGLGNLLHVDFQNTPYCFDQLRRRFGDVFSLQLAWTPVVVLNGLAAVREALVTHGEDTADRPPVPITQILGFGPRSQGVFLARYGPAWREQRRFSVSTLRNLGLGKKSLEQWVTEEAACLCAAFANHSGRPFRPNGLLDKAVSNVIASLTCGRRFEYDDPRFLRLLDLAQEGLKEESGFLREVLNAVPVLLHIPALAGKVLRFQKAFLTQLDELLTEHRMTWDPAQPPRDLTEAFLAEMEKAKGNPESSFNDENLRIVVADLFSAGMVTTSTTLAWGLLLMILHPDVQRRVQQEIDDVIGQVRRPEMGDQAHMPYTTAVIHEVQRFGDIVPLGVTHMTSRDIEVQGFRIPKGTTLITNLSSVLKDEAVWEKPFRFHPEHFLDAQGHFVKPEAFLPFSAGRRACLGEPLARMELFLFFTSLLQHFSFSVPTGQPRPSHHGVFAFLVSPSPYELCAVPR
Chain of CYP2D6 (P16435 2-677 partner): as the sequence (P16435 2-677 partner) above

Compound: CC1=CC(=O)c2ccccc2C1=O [menadione, 2-methylnaphthalene-1,4-dione]
- IC50 [1]: 8.01 ± 0.62 µM
- IC50 [2]: 5.76 ± 0.78 µM
- IC50 [3]: 2.36 ± 0.11 µM
- IC50 [4]: 9.77 ± 3.33 µM
- CYP1A2 mediated activation of parathion and AChE inhibition [5]: completely abolished
- parathion toxicity (startle response, tremulous jaw movement, tremors and convulsions) [6]: marked reduction
- IC50 [7]: 4.6 ± 0.87 µM
